# Data taken from PMC7660650, “Chemical Starting Matter for HNF4α Ligand Discovery and Chemogenomics” (International Journal of Molecular Sciences, 2020).
# Target: T1, Gal4-HNF4α (human HNF4α LBD) (Homo sapiens, UniProt P41235)
# T1 construct: uniprot entry: P41235-1, residues 142-377; expressed in transfected cells; host or cells: HEK293T
# T1 sequence (P41235 142-377): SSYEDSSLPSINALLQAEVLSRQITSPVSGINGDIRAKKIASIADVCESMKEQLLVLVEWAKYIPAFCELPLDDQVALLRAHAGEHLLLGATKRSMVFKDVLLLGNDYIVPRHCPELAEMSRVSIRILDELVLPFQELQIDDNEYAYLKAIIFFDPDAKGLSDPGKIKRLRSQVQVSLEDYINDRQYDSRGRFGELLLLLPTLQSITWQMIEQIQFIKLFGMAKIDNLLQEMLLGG
# Experiment: Hybrid Gal4-HNF4α reporter gene assay in transiently transfected HEK293T cells
# Assay type: cell-based
# Settings: not given
row,SMILES,HNF4a-screening_activity_(mean_of_n=2)
1,"c1ccc(C2COCCN2)cc1 (stereo not shown) [Prestw-Frag-3705, C1COCC(N1)c1ccccc1]",0.9945

# Same assay, conditions: Table S1, primary screening, 50 µM
row,SMILES,HNF4a-screening_activity_(mean_of_n=2)
1,"O=C(Cc1ccccc1F)C1CC1 [Prestw-Frag-3198, Fc1ccccc1CC(=O)C1CC1]",1.083
2,"Cc1ccccc1C(=O)Nc1ccccc1 [Prestw-Frag-3202, Cc1ccccc1C(=O)Nc1ccccc1]",1.357
3,"Oc1ccccc1OCC(F)(F)F [Prestw-Frag-3225, Oc1ccccc1OCC(F)(F)F]",1.152
4,"Cc1cn(-c2cc(N)cc(C(F)(F)F)c2)cn1 [Prestw-Frag-3241, Cc1cn(cn1)-c1cc(N)cc(c1)C(F)(F)F]",1.061
5,"Cc1cc(C)nc(O)n1 [Prestw-Frag-3247, Cc1cc(C)nc(O)n1]",1.288
6,"O=C(O)CC(c1ccccc1)c1ccccc1 [Prestw-Frag-3250, OC(=O)CC(c1ccccc1)c1ccccc1]",1.055
7,"FC(F)(F)c1nnc2n1CCNC2 [Prestw-Frag-3253, FC(F)(F)c1nnc2CNCCn12]",1.371
8,"c1ccc(N2CCN(c3ccccc3)CC2)cc1 [Prestw-Frag-3257, C1CN(CCN1c1ccccc1)c1ccccc1]",1.063
9,"CN1CCN(c2cc(N)ncn2)CC1 [Prestw-Frag-3262, CN1CCN(CC1)c1cc(N)ncn1]",1.186
10,"Nc1ccn([C@H]2C[C@H](O)[C@@H](CO)O2)c(=O)n1 [Prestw-Frag-3264, Nc1ccn([C@H]2C[C@H](O)[C@@H](CO)O2)c(=O)n1]",1.086
11,"COc1ccc(S(=O)(=O)N2CCNCC2)cc1 [Prestw-Frag-3313, COc1ccc(cc1)S(=O)(=O)N1CCNCC1]",1.073
12,"CCOc1ccccc1C(=N)N [Prestw-Frag-3314, CCOc1ccccc1C(N)=N]",1.051
13,"Nc1ncc([N+](=O)[O-])s1 [Prestw-Frag-3324, Nc1ncc(s1)[N+]([O-])=O]",0.8744
14,"Nc1ncnc2c1ncn2CCO [Prestw-Frag-3329, Nc1ncnc2n(CCO)cnc12]",1.131
15,"O=C(c1ccc(C(F)(F)F)cc1)C1CCCCC1 [Prestw-Frag-3334, FC(F)(F)c1ccc(cc1)C(=O)C1CCCCC1]",1.014
16,"NC(=O)c1ccc2[nH]ccc2c1 [Prestw-Frag-3336, NC(=O)c1ccc2[nH]ccc2c1]",1.118
17,"Nc1ccc(CS(=O)(=O)N2CCCC2)cc1 [Prestw-Frag-3341, Nc1ccc(CS(=O)(=O)N2CCCC2)cc1]",1.256
18,"COc1ccc(CC(C)N)cc1 (stereo not shown) [Prestw-Frag-3342, COc1ccc(CC(C)N)cc1]",1.446
19,"c1nc(NC2CC2)c2nc[nH]c2n1 [Prestw-Frag-3360, C1CC1Nc1ncnc2[nH]cnc12]",1.055
20,"CS(=O)(=O)NC(Cc1ccccc1)C(=O)O (stereo not shown) [Prestw-Frag-3362, CS(=O)(=O)NC(Cc1ccccc1)C(O)=O]",1.241
21,"CNS(=O)(=O)CCc1ccccc1 [Prestw-Frag-3368, CNS(=O)(=O)CCc1ccccc1]",1.162
22,"COC(=O)CN1CCc2sccc2C1 [Prestw-Frag-3371, COC(=O)CN1CCc2sccc2C1]",1.101
23,"CCOC(=O)c1cccnc1 [Prestw-Frag-3382, CCOC(=O)c1cccnc1]",1.112
24,"O=C(CCCN1CCNCC1)c1ccc(F)cc1 [Prestw-Frag-3426, Fc1ccc(cc1)C(=O)CCCN1CCNCC1]",1.191

row,SMILES,HNF4a-screening_activity_(mean_of_n=2)
1,"CNCCN(C)C(c1ccccc1)c1ccccc1 [Prestw-Frag-3452, CNCCN(C)C(c1ccccc1)c1ccccc1]",1.151
2,"COc1ccc(CCN)cc1OC [Prestw-Frag-3454, COc1ccc(CCN)cc1OC]",1.113
3,"Oc1ccc(Cc2ccccc2)cc1 [Prestw-Frag-3455, Oc1ccc(Cc2ccccc2)cc1]",0.7887
4,"O=C1CNCCN1 [Prestw-Frag-3458, O=C1CNCCN1]",1.246
5,"O=C1CN(Cc2ccccc2)CCN1 [Prestw-Frag-3459, O=C1CN(Cc2ccccc2)CCN1]",1.076
6,"CN1CCNCC1=O [Prestw-Frag-3460, CN1CCNCC1=O]",1.233
7,"Cn1cc(CC(=O)O)c2ccccc21 [Prestw-Frag-3461, Cn1cc(CC(O)=O)c2ccccc12]",1.168
8,"NC1CCc2ccccc21 (stereo not shown) [Prestw-Frag-3462, NC1CCc2ccccc12]",1.151
9,"O=C1COCCN1 [Prestw-Frag-3463, O=C1COCCN1]",1.252
10,"Cn1ccc(=O)[nH]1 [Prestw-Frag-3664, Cn1ccc(=O)[nH]1]",1.182
11,"O=C1Cc2cc(F)ccc2N1 [Prestw-Frag-3667, Fc1ccc2NC(=O)Cc2c1]",0.8142
12,"O=C(O)CC1CCCCC1 [Prestw-Frag-3668, OC(=O)CC1CCCCC1]",0.9215
13,"C#Cc1cccc(N)c1 [Prestw-Frag-3669, Nc1cccc(c1)C#C]",1.159
14,"CN1CCN(c2ccc(N)cc2)CC1 [Prestw-Frag-3670, CN1CCN(CC1)c1ccc(N)cc1]",1.015
15,"CCN1CCCC1CN (stereo not shown) [Prestw-Frag-3671, CCN1CCCC1CN]",1.171
16,"Fc1ccc(CN2CCNCC2)cc1 [Prestw-Frag-3673, Fc1ccc(CN2CCNCC2)cc1]",1.124
17,"O=C(c1ccccc1)N1CCNCC1 [Prestw-Frag-3677, O=C(N1CCNCC1)c1ccccc1]",0.9693
18,"COc1ccc2[nH]cnc2c1 [Prestw-Frag-3678, COc1ccc2[nH]cnc2c1]",0.9895
19,"Nc1cnc2ccccc2n1 [Prestw-Frag-3679, Nc1cnc2ccccc2n1]",0.8882
20,"O=C1CC2(CCCC2)CC(=O)N1 [Prestw-Frag-3680, O=C1CC2(CCCC2)CC(=O)N1]",0.8965
21,"Nc1ccc2c(c1)CCCC2 [Prestw-Frag-3682, Nc1ccc2CCCCc2c1]",0.958
22,"CC(=O)c1ccc2c(c1)OCO2 [Prestw-Frag-3686, CC(=O)c1ccc2OCOc2c1]",0.9343
23,"NCc1ncc[nH]1 [Prestw-Frag-3689, NCc1ncc[nH]1]",0.8561
24,"CNC(=O)c1c(-c2ccccc2)noc1C [Prestw-Frag-3690, CNC(=O)c1c(C)onc1-c1ccccc1]",0.8222

row,SMILES,HNF4a-screening_activity_(mean_of_n=2)
1,"CN1CCN(CCCC(=O)c2ccc(F)cc2)CC1 [Prestw-Frag-3692, CN1CCN(CCCC(=O)c2ccc(F)cc2)CC1]",1.385
2,"CN(C)CCCC(=O)c1ccc(F)cc1 [Prestw-Frag-3693, CN(C)CCCC(=O)c1ccc(F)cc1]",1.093
3,"Oc1cccc2[nH]ccc12 [Prestw-Frag-3696, Oc1cccc2[nH]ccc12]",0.9739
4,"COc1cc2c(cc1OC)CC(=O)NCC2 [Prestw-Frag-3698, COc1cc2CCNC(=O)Cc2cc1OC]",1.019
5,"O=C1COc2cc(O)ccc21 [Prestw-Frag-3703, Oc1ccc2C(=O)COc2c1]",1.217
6,"CNC(=O)c1c(OC)ccc(Br)c1OC [Prestw-Frag-3704, CNC(=O)c1c(OC)ccc(Br)c1OC]",1.072
7,"CC(C(=O)O)c1cccc(F)c1 (stereo not shown) [Prestw-Frag-3706, CC(C(O)=O)c1cccc(F)c1]",1.072
8,"NC1CCc2[nH]c3ccccc3c2C1 (stereo not shown) [Prestw-Frag-3709, NC1CCc2[nH]c3ccccc3c2C1]",1.209
9,"O=C(O)C(c1ccccc1)c1ccccc1 [Prestw-Frag-3711, OC(=O)C(c1ccccc1)c1ccccc1]",1.082
10,"c1ccc(C2CCCNCC2)cc1 (stereo not shown) [Prestw-Frag-3712, C1CNCCC(C1)c1ccccc1]",1.122
11,"Oc1ccc2c(c1)CCC2 [Prestw-Frag-3713, Oc1ccc2CCCc2c1]",1.011
12,"NC1CCC(=O)NC1=O (stereo not shown) [Prestw-Frag-3716, NC1CCC(=O)NC1=O]",1.139
13,"CC(O)(C(=O)O)c1ccccc1 (stereo not shown) [Prestw-Frag-3717, CC(O)(C(O)=O)c1ccccc1]",1.037
14,"O=C1CNCN1 [Prestw-Frag-3718, O=C1CNCN1]",1.053
15,"c1cncc(CN2CCNCC2)c1 [Prestw-Frag-3722, C(N1CCNCC1)c1cccnc1]",0.9979
16,"NC(=O)N1CCNCC1 [Prestw-Frag-3723, NC(=O)N1CCNCC1]",1.067
17,"Cc1n[nH]c(C)c1N [Prestw-Frag-3724, Cc1n[nH]c(C)c1N]",0.9198
18,"FC(F)(F)c1cc[nH]n1 [Prestw-Frag-3726, FC(F)(F)c1cc[nH]n1]",0.9056
19,"OCC1CCNCC1 [Prestw-Frag-3727, OCC1CCNCC1]",0.8559
20,"OCC1CCCNC1 (stereo not shown) [Prestw-Frag-3728, OCC1CCCNC1]",1.103
21,"c1cc(N2CCNCC2)ncn1 [Prestw-Frag-3729, C1CN(CCN1)c1ccncn1]",1.017
22,"N#CCC(=O)N1CCCCC1 [Prestw-Frag-3730, O=C(CC#N)N1CCCCC1]",0.9277
23,"CCN(CC)C(=O)CC#N [Prestw-Frag-3731, CCN(CC)C(=O)CC#N]",0.9542
24,"c1ccc2c(c1)NCCO2 [Prestw-Frag-3732, C1COc2ccccc2N1]",1.144
